The values below come from ChEMBL document CHEMBL5579804, “Synthesis and kinetic evaluation of phosphomimetic inhibitors targeting type B ribose-5-phosphate isomerase from Mycobacterium tuberculosis” (Bioorg Med Chem Lett, 2024).

Molecules are shown by their SMILES.

In experiment [1] the target is T1, ribose-5-phosphate isomerase (Spinacia oleracea) (UniProt Q8RU73).
T1 sequence (whole entry): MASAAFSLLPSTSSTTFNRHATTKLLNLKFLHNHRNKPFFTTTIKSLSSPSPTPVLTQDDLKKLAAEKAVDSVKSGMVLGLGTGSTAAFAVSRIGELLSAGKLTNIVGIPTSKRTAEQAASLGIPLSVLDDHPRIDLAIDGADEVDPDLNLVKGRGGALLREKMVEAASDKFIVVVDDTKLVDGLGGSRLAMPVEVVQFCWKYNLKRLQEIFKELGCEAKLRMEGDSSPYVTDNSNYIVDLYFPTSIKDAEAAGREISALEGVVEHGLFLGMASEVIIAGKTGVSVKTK
The experiment is described as follows: Competitive inhibition of Spinacia oleracea RPIA assessed as ratio of Km/Ki using D-ribose-5-phosphate as substrate by Cheng-Prusoff equation analysis.

Experiment [2] deals with T2, Ribose-5-phosphate isomerase B (Escherichia coli (strain K12)) (UniProt P37351).
T2 sequence (whole entry): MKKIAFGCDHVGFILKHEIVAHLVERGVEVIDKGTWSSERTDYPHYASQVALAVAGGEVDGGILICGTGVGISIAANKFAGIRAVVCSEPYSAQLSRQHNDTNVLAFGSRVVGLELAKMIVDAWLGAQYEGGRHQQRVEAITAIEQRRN
Briefly: Competitive inhibition of Escherichia coli RPIB assessed as ratio of Km/Ki using D-ribose-5-phosphate as substrate by Cheng-Prusoff equation analysis.

The target in experiment [3] is T3, Ribose-5-phosphate isomerase B (Mycobacterium tuberculosis) (UniProt P9WKD7).
T3 sequence (whole entry): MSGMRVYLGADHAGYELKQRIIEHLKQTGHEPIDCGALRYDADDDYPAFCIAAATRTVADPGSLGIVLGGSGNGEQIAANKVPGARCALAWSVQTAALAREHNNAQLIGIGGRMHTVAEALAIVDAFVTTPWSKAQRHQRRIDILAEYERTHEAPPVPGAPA
The experiment is described as follows: Competitive inhibition of Mycobacterium tuberculosis RPIB assessed as ratio of Km/Ki using D-ribose-5-phosphate as substrate by Cheng-Prusoff equation analysis.

A short description of experiment [4]: Selectivity ratio of Km/Ki for Mycobacterium tuberculosis RpiB to Km/Ki for Spinacia oleracea RpiA.

For `O=S(=O)(O)OC[C@H]1OC(O)[C@H](O)[C@@H]1O` (some centres not stated), the Ratio was determined as 17 in experiment [1], 18 in experiment [2] and 53 in experiment [3]. Also, the Selectivity ratio in experiment [4] was determined as 3.1.

With `O=C(O)[C@@H](O)[C@@H](O)[C@@H](O)COP(=O)(O)O` (single isomer, unassigned), the Ratio was determined as 79 in experiment [1] and 233 in experiment [3]. Moreover, in experiment [4], the Selectivity ratio turned out to be 3.

On to `CC(C(C(=O)O)C(=O)O)[C@@H](O)[C@@H](O)[C@@H](O)CCC(=O)O` (some centres not stated), for which the Ratio in experiment [1] is below 4; in experiment [3], 7. Further, in experiment [4], the Selectivity ratio was above 1.7.

Consider `O=C(O)[C@H](O)[C@H](O)[C@H](O)COP(=O)(O)O`, for which the Selectivity ratio in experiment [4] is 4.5.

For `O=C(O)C(C[C@H]1OC(O)[C@H](O)[C@@H]1O)C(=O)O` (some centres not stated), the Ratio is 7 in experiment [1], 2 in experiment [2] and 6 in experiment [3]. The Selectivity ratio in experiment [4] was found to be 0.8.

For `CC(C(C(=O)O)C(=O)O)[C@@H](O)[C@@H](O)[C@@H](O)CCP(=O)(O)O` (some centres not stated), the Ratio in experiment [1] is below 4; in experiment [3] it was 26. Moreover, the Selectivity ratio in experiment [4] is above 6.5.

On to `O=S(=O)(O)CC[C@H]1OC(O)[C@H](O)[C@@H]1O` (some centres not stated), for which the Ratio worked out at 26 in experiment [1], 9 in experiment [2] and 19 in experiment [3]. The Selectivity ratio in experiment [4] is 0.7.
